Test results taken from article PMC9944328 (Nature Communications, 2023).
Several values for one entry are separate records, joined by “and”; a condition that tells them apart may be missing. Equal entries are not always repeated.

Target: SSTR2 (Homo sapiens, UniProt P30874)
Assay: SSTRs Gi-mediated cAMP inhibition, GloSensor, HEK293, 5 μM forskolin, 15 min room temperature (SSTR2 wild-type);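 on Bottom (best-fit value): normalized to the maximal wild-type response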;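 on Bottom (best-fit): normalized to the maximal wild-type response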;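 on Span (best-fit value), cAMP inhibition: normalized to the maximal wild-type response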;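 on Span (best-fit value): normalized to the maximal wild-type response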;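 on Span (best-fit): normalized to the maximal wild-type response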;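 on Span: normalized to the maximal wild-type response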;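 on Top (best-fit): normalized to the maximal wild-type response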
Format: cell-based
Parameters: Best-fit Top, cAMP inhibition / Span, cAMP inhibition / Best-fit Bottom / Best-fit Top / Best-fit Span / Bottom / Span (best-fit value), cAMP inhibition / Top (best-fit value), cAMP inhibition: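 normalized to the maximal wild-type response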
Settings: for Bottom (best-fit value) / LogEC50 (best-fit value) / Span (best-fit value) / Top (best-fit value): Y205A panel
Description: The levels of the intracellular 3′, 5′-cyclic AMP (cAMP) were measured by the GloSensor cAMP assay (Promega) as described in the previous studies[28],[41] which has been widely used. The human full-length SSTRs and mutants were cloned into the pcDNA3.1+ vector with a HA signal sequence followed by a Flag tag at the N-terminus. HEK293 cells (ATCC, CRL-1573) were seeded into 6-well microplates at a density of 1.0 × 10^6 cells/well and cultured for 24 h at 37 °C with 5% CO2. Cells were then co-transfected with SSTR wild-type or mutants and GloSensor plasmids. After 24 h of transfection, the cells were dissociated with TrypLE™ Express Enzyme (1X) (Thermo Fisher Scientific) and collected by centrifugation at 500 × g for 5 min. Then the collected cells were suspended in Hank’s balanced salt solution [HBSS (Thermo Fisher Scientific)] supplemented with […] (YEASEN), and then the suspension cells were seeded into 96-well plates with 90 μl/well. After incubating at room temperature for 40 min, 5 μM forskolin and ligands diluted in HBSS were added to each well and the plates were incubated at room temperature for 15 min. […] were measured using the Synergy H1 microplate reader (BioTek) and the data presented are means of at least three independent experiments.

[1] = WT-2 (run 2 of each mutant's batch)
[2] = WT-3 (run 3 of each mutant's batch)
[3] = cAMP inhibition best-fit, D122A set, WT-1
[4] = cAMP inhibition best-fit, D122A set, WT-2
[5] = cAMP inhibition best-fit, D122A set, WT-3
[6] = cAMP inhibition best-fit, F127A set, WT-1
[7] = cAMP inhibition best-fit, F127A set, WT-2
[8] = cAMP inhibition best-fit, F127A set, WT-3
[9] = cAMP inhibition best-fit, I130A set, WT-1
[10] = cAMP inhibition best-fit, I130A set, WT-2
[11] = cAMP inhibition best-fit, I130A set, WT-3
[12] = cAMP inhibition best-fit, Q102A set, WT-1
[13] = cAMP inhibition best-fit, Q102A set, WT-2
[14] = cAMP inhibition best-fit, Q102A set, WT-3
[15] = cAMP inhibition best-fit, Q126A set, WT-1
[16] = cAMP inhibition best-fit, Q126A set, WT-2
[17] = cAMP inhibition best-fit, Q126A set, WT-3
[18] = cAMP inhibition best-fit, V103A set, WT-1
[19] = cAMP inhibition best-fit, V103A set, WT-2
[20] = cAMP inhibition best-fit, V103A set, WT-3

SSTR2, sequence (P30874 whole entry): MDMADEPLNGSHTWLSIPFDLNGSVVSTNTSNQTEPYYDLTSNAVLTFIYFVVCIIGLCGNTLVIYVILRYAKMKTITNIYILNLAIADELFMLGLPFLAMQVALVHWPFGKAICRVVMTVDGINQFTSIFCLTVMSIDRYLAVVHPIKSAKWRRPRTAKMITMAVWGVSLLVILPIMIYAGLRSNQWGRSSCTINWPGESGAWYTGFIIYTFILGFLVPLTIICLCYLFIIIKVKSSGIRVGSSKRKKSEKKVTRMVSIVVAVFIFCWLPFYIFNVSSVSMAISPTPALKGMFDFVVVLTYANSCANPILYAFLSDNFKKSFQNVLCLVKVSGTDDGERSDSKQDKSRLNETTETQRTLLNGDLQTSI

N#Cc1cccc(-c2ccc3ncc(-c4cc(F)cc(F)c4)c(N4CCC(N)CC4)c3c2)c1O [paltusotine]
Span (best-fit) (WT-1, run paired with T194H): 111 | Top (best-fit) (WT-1, run paired with T194H): 106.2 | Bottom (best-fit) (WT-1, run paired with V103N): 16.51 | LogEC50 (WT-1, run paired with V103N): -8.678 | Span (best-fit) (WT-1, run paired with V103N): 89.51 | Top (best-fit) (WT-1, run paired with V103N): 106 | LogEC50 (WT-1, run paired with Y205R): -9.27 | Span (best-fit) (WT-1, run paired with Y205R): 108.3 | Top (best-fit) (WT-1, run paired with Y205R): 106.3 | Span (best-fit value), cAMP inhibition [1]: 111.8 and 113.8 and 107.7 and 112.3 | Top (best-fit value), cAMP inhibition [1]: 108 and 108.3 and 107.8 and 112.4 | Bottom (best-fit) (WT-2, run paired with D295F): -1.411 | LogEC50 (WT-2, run paired with D295F): -9.3 | Span (best-fit) (WT-2, run paired with D295F): 105.2 | Top (best-fit) (WT-2, run paired with D295F): 103.8 | Bottom (best-fit) (WT-2, run paired with F294Y): -1.411 | LogEC50 (WT-2, run paired with F294Y): -9.3 | Span (best-fit) (WT-2, run paired with F294Y): 105.2 | Top (best-fit) (WT-2, run paired with F294Y): 103.8 | Bottom (best-fit) (WT-2, run paired with I195M): 10.59 | LogEC50 (WT-2, run paired with I195M): -8.695 | Span (best-fit) (WT-2, run paired with I195M): 88.58 | Top (best-fit) (WT-2, run paired with I195M): 99.16 | Bottom (best-fit) (WT-2, run paired with T194H): -0.3773 | LogEC50 (WT-2, run paired with T194H): -8.796 | Span (best-fit) (WT-2, run paired with T194H): 113.8 | Top (best-fit) (WT-2, run paired with T194H): 113.4 | Bottom (best-fit) (WT-2, run paired with V103N): 8.218 | LogEC50 (WT-2, run paired with V103N): -8.87 | Span (best-fit) (WT-2, run paired with V103N): 100.4 | Top (best-fit) (WT-2, run paired with V103N): 108.6 | LogEC50 (WT-2, run paired with Y205R): -9.271 | Span (best-fit) (WT-2, run paired with Y205R): 104.8 | Top (best-fit) (WT-2, run paired with Y205R): 105.4 | Span (best-fit value), cAMP inhibition [2]: 106.7 and 111.8 and 113.8 and 112.4 and 113.7 | Top (best-fit value), cAMP inhibition [2]: 107.8 and 108 and 112 and 113.6 | Bottom (best-fit) (WT-3, run paired with D295F): 12.84 | LogEC50 (WT-3, run paired with D295F): -8.964 | Span (best-fit) (WT-3, run paired with D295F): 85.7 | Top (best-fit) (WT-3, run paired with D295F): 98.54 | Bottom (best-fit) (WT-3, run paired with F294Y): -4.818 | LogEC50 (WT-3, run paired with F294Y): -8.937 | Span (best-fit) (WT-3, run paired with F294Y): 111 | Top (best-fit) (WT-3, run paired with F294Y): 106.2 | Bottom (best-fit) (WT-3, run paired with T194H): 8.218 | LogEC50 (WT-3, run paired with T194H): -8.87 | Span (best-fit) (WT-3, run paired with T194H): 100.4 | Top (best-fit) (WT-3, run paired with T194H): 108.6 | Bottom (best-fit) (WT-3, run paired with V103N): -2.506 | LogEC50 (WT-3, run paired with V103N): -8.966 | Span (best-fit) (WT-3, run paired with V103N): 107.7 | Top (best-fit) (WT-3, run paired with V103N): 105.2 | LogEC50 (WT-3, run paired with Y205R): -8.678 | Span (best-fit) (WT-3, run paired with Y205R): 89.51 | Top (best-fit) (WT-3, run paired with Y205R): 106 | Bottom (best-fit value) (WT-1 (run 1)): -1.411 | LogEC50 (best-fit value) (WT-1 (run 1)): -9.3 | Span (best-fit value) (WT-1 (run 1)): 105.2 | Top (best-fit value) (WT-1 (run 1)): 103.8 | Bottom (best-fit value) (WT-2 (run 2)): 7.891 | LogEC50 (best-fit value) (WT-2 (run 2)): -9.109 | Span (best-fit value) (WT-2 (run 2)): 96.39 | Top (best-fit value) (WT-2 (run 2)): 104.3 | Bottom (best-fit value) (WT-3 (run 3)): 0.01788 | LogEC50 (best-fit value) (WT-3 (run 3)): -8.988 | Span (best-fit value) (WT-3 (run 3)): 104.7 | Top (best-fit value) (WT-3 (run 3)): 104.8 | Bottom [3]: -4.038 | LogEC50 [3]: -8.63 | Span [3]: 111.8 | Top [3]: 107.8 | Bottom [4]: -5.769 | LogEC50 [4]: -8.575 | Span [4]: 113.8 | Top [4]: 108 | Bottom [5]: -1.411 | LogEC50 [5]: -9.3 | Span [5]: 105.2 | Top [5]: 103.8 | Bottom [6]: -0.438 | LogEC50 [6]: -8.811 | Span [6]: 112.4 | Top [6]: 112 | Bottom [7]: -4.818 | LogEC50 [7]: -8.937 | Span [7]: 111 | Top [7]: 106.2 | Bottom [8]: -0.9578 | LogEC50 [8]: -9.526 | Span [8]: 107.3 | Top [8]: 106.4 | Bottom [9]: -3.466 | LogEC50 [9]: -9.53 | Span [9]: 116.5 | Top [9]: 113 | Bottom [10]: -6.932 | LogEC50 [10]: -9.494 | Span [10]: 126.2 | Top [10]: 119.3 | Bottom [11]: -3.016 | LogEC50 [11]: -8.949 | Span [11]: 106.8 | Top [11]: 103.7 | LogEC50 [12]: -9.218 | Span [12]: 100.2 | Top [12]: 103.5 | LogEC50 [13]: -8.923 | Span [13]: 98.67 | Top [13]: 106.5 | LogEC50 [14]: -8.998 | Span [14]: 106.7 | Top [14]: 106.1 | Bottom [15]: 7.891 | LogEC50 [15]: -9.109 | Span [15]: 96.39 | Top [15]: 104.3 | Bottom [16]: -2.459 | LogEC50 [16]: -8.801 | Span [16]: 121.7 | Top [16]: 119.3 | Bottom [17]: 2.655 | LogEC50 [17]: -9.073 | Span [17]: 104.2 | Top [17]: 106.8 | Bottom [18]: -2.459 | LogEC50 [18]: -8.801 | Span [18]: 121.7 | Top [18]: 119.3 | Bottom [19]: 3.281 | LogEC50 [19]: -9.218 | Span [19]: 100.2 | Top [19]: 103.5 | Bottom [20]: 7.801 | LogEC50 [20]: -8.923 | Span [20]: 98.67 | Top [20]: 106.5
